In brackets after ≈: the same amount, converted by molar mass. Like-named read-outs stand apart in the source and are kept apart here.
Key:
E. coli K12ΔtolC = assay: Minimal inhibitory concentration, microbroth dilution; format: cell-based
Method in brief: (§1)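 Growth inhibition was scored visually after overnight aerobic culture at 37 °C in CLSI-style microdilution plates. Inocula contained about 10^5 cfu/mL, and compound concentrations descended in twofold steps from 200 μM.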

S. aureus USA 300 ΔClpP = assay: as above; format: cell-based, Staphylococcus aureus; conditions: ClpP inactivated strain
Method in brief: as §1

Sa-ClpP [1] = target: T1, Sa-ClpP (Staphylococcus aureus, UniProt Q2G036); assay: ADEP displacement fluorescence polarization assay; format: binding, S. aureus; conditions: 1 μM Sa-ClpP, 50 nM FP probe ADEP 2591; read-out: ADEP Displacement IC50
T1 construct: made in house; host or cells: E. coli BL21 (DE3)
Method in brief: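 Displacement of TAMRA-labelled ADEP 2591 probe (50 nM) from 1 μM Sa-ClpP, pre-equilibrated 1 h in Tris·HCl pH 8.0 with 2% DMSO, then 120 min at room temperature with compound, triplicate. Polarization (mP) read ex 530/em 579 nm, normalised to 20 μM ADEP 2378 and DMSO controls; four-parameter fit.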

S. pneumoniae DAW27 = assay: Minimal inhibitory concentration, microbroth dilution; format: cell-based
Method in brief: as §1

S. aureus ATCC 29213 = assay: as above; format: cell-based
Method in brief: as §1

B. subtilis ATCC 23857 = assay: as above; format: cell-based
Method in brief: as §1

E. faecails ATCC 33186 = assay: as above; format: cell-based; conditions: Enterococcus faecalis, ATCC33186, read-out: Minimal Inhibitory Concentration E. faecails ATCC 33186
Method in brief: as §1

S. pyogenes ATCC 700294 = assay: as above; format: cell-based
Method in brief: (§2)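 Twofold serial dilutions in broth per CLSI M7-A7 microbroth dilution, incubated aerobically overnight at 37° C. MIC read visually as lowest concentration preventing bacterial growth.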

[2] = Cytotoxicity assay, CellTiter-Glo cell viability; format: cell-based; conditions: African green monkey
Method in brief: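 Vero cells seeded overnight at 37 °C in DMEM with 10% FBS, then exposed to serial dilutions of compound for 72 h. Viability read by CellTiter-Glo luminescence; IC50 from duplicates, given as the range of two independent experiments.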

S. aureus ClpP (Sa-ClpP) = target: T2, S. aureus ClpP (Sa-ClpP) (Staphylococcus aureus, UniProt Q2G036); assay: ClpP activation, casein-BODIPY digestion assay (first described method); format: biochemical; conditions: first described ClpP activation assay (**); 10 μM saClpP, 25 μg/ml BODIPY FL casein, 37° C.; read-out: ClpP Activation EC50
T2 construct: made in house; host or cells: E. coli BL21 (DE3)
Experimental: The compounds were assayed in a casein digestion assay in order to determine their effect on ClpP activation. Briefly, the assay was carried out using S. aureus ClpP (“Sa-ClpP”) overexpressed in E. coli BL21 (DE3) and purified in a two-step process. Purity of the protein was assessed through SDS PAGE analysis. EC50 evaluations were conducted in triplicate in a 20 μl assay format using a method adapted from Maurizi et al. (Methods Enzymol. (1994) 244:314-331.). Each well contained 10 μM saClpP, 25 μg/ml BODIPY FL casein (Invitrogen Corporation, San Diego, Calif.), and test compound in concentrations ranging between 0-100 μM in assay buffer (50 mM Tris pH 8, 200 mM KCl, and 1 mM TCEP). The reaction took place at 37° C. Fluorescence (excitation 485 nm; emission 528 nm) was measured in five minute intervals over a 45 min period using a BioTek HT fluorescence microplate reader (BioTek Instruments, Inc., Winooski, Vt.). Velocity of each reaction was calculated and data was fit to a dose response curve using GraphPad Prism® software (GraphPad Software, Inc., La Jolla, Calif.). EC50 is the effective concentration of compound which causes 50% activation of S. aureus ClpP in the foregoing BODIPY FL casein assay.

Sa-ClpP [3] = target: T1, Sa-ClpP; assay: ClpP activation, EnzCheck Protease Assay with Bodipy-FL casein (second described method); format: biochemical, S. aureus; conditions: read-out: ClpP Activation EC50 (converted)
Method in brief: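 Sa-ClpP (2 μM in master mix) with Bodipy-FL casein (2 μM in master mix) in Tris-HCl pH 8.0, 0.01% Triton X-100, compounds in 2% DMSO, triplicate. Fluorescence (ex 485/em 520 nm) followed 30 min; degradation slopes normalized to ADEP4 and DMSO controls, EC50 and % activation by four-parameter fit.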

S. aureus USA 300 = assay: Minimal inhibitory concentration, microbroth dilution; format: cell-based; conditions: Staphylococcus aureus, USA300; read-out: Minimal Inhibitory Concentration S. aureus USA 300
Method in brief: as §1

S. aureus NRS70 = assay: as above; format: cell-based; conditions: Staphylococcus aureus, NRS70; read-out: Minimal Inhibitory Concentration S. aureus NRS70
Method in brief: as §1

S. pneumoniae R6 = assay: as above; format: cell-based; conditions: Streptococcus pneumoniae, R6; read-out: Minimal Inhibitory Concentration S. pneumoniae R6
Method in brief: as §2

[4] = Streptococcus pneumoniae, DAW27, read-out: Minimal Inhibitory Concentration S. pneumoniae DAW27
[5] = Staphylococcus aureus, ATCC29213, read-out: Minimal Inhibitory Concentration S. aureus ATCC 29213
[6] = Bacillus subtilis, ATCC23857, read-out: Minimal Inhibitory Concentration B. subtilis ATCC 23857
[7] = Streptococcus pyogenes, ATCC700294, read-out: Minimal Inhibitory Concentration S. pyogenes ATCC 700294
[8] = Vero cells, 72 hours, read-out: Cytotoxicity IC50
[9] = Streptococcus pneumoniae, DAW27; read-out: Minimal Inhibitory Concentration S. pneumoniae DAW27

T2 sequence (Q2G036 whole entry): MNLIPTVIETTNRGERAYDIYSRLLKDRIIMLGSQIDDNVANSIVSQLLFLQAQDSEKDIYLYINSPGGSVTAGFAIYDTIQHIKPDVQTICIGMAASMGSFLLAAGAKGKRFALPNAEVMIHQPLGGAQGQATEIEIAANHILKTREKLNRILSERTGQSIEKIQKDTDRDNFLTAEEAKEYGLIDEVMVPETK
T1 sequence (Q2G036 whole entry): as above

SMILES	Minimal Inhibitory Concentration E. coli K12ΔtolC (E. coli K12ΔtolC) [µM]	IC50 (Sa-ClpP [1]) [µM]	IC50 at 72 h [2, 8] [µM]	EC50 (S. aureus ClpP (Sa-ClpP)) [µM]	EC50 (Sa-ClpP [3]) [µM]	IC50 at 72 h [2] [µM]	further results
O=C(N[C@H](CO)[C@H](O)c1ccc([N+](=O)[O-])cc1)C(Cl)Cl [Chloroamphenicol, chloramphenicol, reference compound]	0.78	–	–	–	–	–	Minimal Inhibitory Concentration S. aureus USA 300 ΔClpP (S. aureus USA 300 ΔClpP): 6.3 µM
C[C@@H]1C[C@H]2C(=O)OC[C@H](NC(=O)[C@H](Cc3ccccc3)NC(=O)Nc3ccccc3)C(=O)N3CCC[C@H]3C(=O)N3CCCC[C@H]3C(=O)N[C@@H](C)C(=O)N2C1 [Compound 1, (S)—N-((2R,6S,8aS,14aS,20S,23aS)-2,6-Dimethyl-5,8,14,19,23-Pentaoxooctadecahydro-1H,5H,14H,19H-Pyrido[2,1-I]Dipyrrolo[2,1-C:2′,1′-L][1]Oxa[4,7,10,13]Tetraazacyclohexadecin-20-Yl)-3-Phenyl-2-(3-Phenylureido)Propanamide]	200	6.72 ± 0.4	> 100	3.6 ± 0.4	–	–	MIC (S. pneumoniae DAW27; [4]): 0.78 µM (≈ 0.58 µg/mL); MIC (S. aureus ATCC 29213; [5]): 6.25 µM (≈ 4.65 µg/mL); MIC (B. subtilis ATCC 23857; [6]): 1.56 µM (≈ 1.16 µg/mL); MIC (E. faecails ATCC 33186): 3.13 µM (≈ 2.33 µg/mL); MIC (S. pyogenes ATCC 700294; [7]): 1.56 µM (≈ 1.16 µg/mL)
C[C@@H]1C[C@H]2C(=O)OC[C@H](NC(=O)[C@H](Cc3ccccc3)NC(=O)Nc3ccc(OC(F)(F)F)cc3)C(=O)N3CCC[C@H]3C(=O)N3CCCC[C@H]3C(=O)N[C@@H](C)C(=O)N2C1 [Compound 2, (S)—N-((2R,6S,8aS,14aS,20S,23aS)-2,6-Dimethyl-5,8,14,19,23-Pentaoxooctadecahydro-1H,5H,14H,19H-Pyrido[2,1-I]Dipyrrolo[2,1-C:2′,1′-L][1]Oxa[4,7,10,13]Tetraazacyclohexadecin-20-Yl)-3-Phenyl-2-(3-(4-(Trifluoromethoxy)Phenyl)Ureido)Propanamide]	12.5	7.66 ± 0.3	–	2.6 ± 0.4	0.5	88.3 ± 15.2	–
CCc1ccc(NC(=O)N[C@@H](Cc2ccccc2)C(=O)N[C@H]2COC(=O)[C@@H]3C[C@@H](C)CN3C(=O)[C@H](C)NC(=O)[C@@H]3CCCCN3C(=O)[C@@H]3CCCN3C2=O)cc1 [Compound 4, (S)—N-((2R,6S,8aS,14aS,20S,23aS)-2,6-Dimethyl-5,8,14,19,23-Pentaoxooctadecahydro-1H,5H,14H,19H-Pyrido[2,1-1]Dipyrrolo[2,1-C:2′,1′-L][1]Oxa[4,7,10,13]Tetraazacyclohexadecin-20-Yl)-2-(3-(4-Ethylphenyl)Ureido)-3-Phenylpropanamide]	25	29 ± 2.1	–	1.4 ± 0.1	5.5	73.7 ± 8.4	–
COc1cccc(NC(=O)N[C@@H](Cc2ccccc2)C(=O)N[C@H]2COC(=O)[C@@H]3C[C@@H](C)CN3C(=O)[C@H](C)NC(=O)[C@@H]3CCCCN3C(=O)[C@@H]3CCCN3C2=O)c1 [Compound 8, (S)—N-((2R,6S,8aS,14aS,20S,23aS)-2,6-Dimethyl-5,8,14,19,23-Pentaoxooctadecahydro-1H,5H,14H,19H-Pyrido[2,1-I]Dipyrrolo[2,1-C:2′,1′-L][1]Oxa[4,7,10,13]Tetraazacyclohexadecin-20-Yl)-2-(3-(3-Methoxyphenyl)Ureido)-3-Phenylpropanamide]	200	16.3 ± 0.8	–	3 ± 0.4	1.3	> 100	–
C[C@@H]1C[C@H]2C(=O)OC[C@H](NC(=O)[C@H](Cc3ccccc3)NC(=O)Nc3ccc4ccn(C)c4c3)C(=O)N3CCC[C@H]3C(=O)N3CCCC[C@H]3C(=O)N[C@@H](C)C(=O)N2C1 [Compound 12, (S)—N-((2R,6S,8aS,14aS,20S,23aS)-2,6-Dimethyl-5,8,14,19,23-Pentaoxooctadecahydro-1H,5H,14H,19H-Pyrido[2,1-I]Dipyrrolo[2,1-C:2′,1′-L][1]Oxa[4,7,10,13]Tetraazacyclohexadecin-20-Yl)-2-(3-(1-Methyl-1H-Indol-6-Yl)Ureido)-3-Phenylpropanamide]	–	6.81 ± 0.4	90 ± 7.6	3.2 ± 0.5	–	–	MIC (S. pneumoniae DAW27; [4]): 0.3 µM (≈ 0.239 µg/mL); MIC (S. aureus ATCC 29213; [5]): 2.5 µM (≈ 1.99 µg/mL); MIC (B. subtilis ATCC 23857; [6]): 2.5 µM (≈ 1.99 µg/mL); MIC (E. faecails ATCC 33186): 1.25 µM (≈ 0.996 µg/mL); MIC (S. pyogenes ATCC 700294; [7]): 0.6 µM (≈ 0.478 µg/mL)
C[C@H]1C[C@H]2C(=O)O[C@@H](C)[C@H](NC(=O)[C@H](Cc3cc(F)cc(F)c3)NC(=O)Nc3ccc(OC(F)(F)F)cc3)C(=O)N3CCC[C@H]3C(=O)N3CCCC[C@H]3C(=O)N[C@@H](C)C(=O)N2C1 [Compound 22, (S)-3-(3,5-Difluorophenyl)-2-(3-(4-(Trifluoromethoxy)Phenyl)Ureido)-N-((2R,6S,8aS,14aS,20S,21S,23aS)-2,6,21-Trimethyl-5,8,14,19,23-Pentaoxooctadecahydro-1H,5H,14H,19H-Pyrido[2,1-I]Dipyrrolo[2,1-C:2′,1′-L][1]Oxa[4,7,10,13]Tetraazacyclohexadecin-20-Yl)Propanamide]	–	8.9 ± 0.3	52.3 ± 7.7	3.6 ± 0.4	0.32	–	–
C[C@H]1CC2C(=O)O[C@@H](C)[C@H](NC(=O)[C@H](Cc3cc(F)cc(F)c3)NC(=O)Nc3ccc(OC(F)(F)F)cc3)C(=O)N3CCCC3C(=O)N(C)[C@@H]([C@H](C)O)C(=O)N[C@@H](C)C(=O)N2C1 (stereo partly drawn) [Compound 36, (S)-3-(3,5-Difluorophenyl)-N-((2S,6S,9S,11aS,17S,18S,20aS)-9-((S)-1-Hydroxyethyl)-2,6,10,18-Tetramethyl-5,8,11,16,20-Pentaoxohexadecahydro-1H,5H,16H-Dipyrrolo[2,1-C:2′,1′-L][1]Oxa[4,7,10,13]Tetraazacyclohexadecin-17-Yl)-2-(3-(4-(Trifluoromethoxy)Phenyl)Ureido)Propanamide]	–	–	–	–	–	–	MIC (S. aureus USA 300): 0.1 µM (≈ 0.0882 µg/mL); MIC (S. aureus ATCC 29213; Staphylococcus aureus, ATCC29213; read-out: Minimal Inhibitory Concentration S. aureus ATCC 29213): 0.1 µM (≈ 0.0882 µg/mL); MIC (S. aureus NRS70): 0.05 µM (≈ 0.0441 µg/mL); MIC (B. subtilis ATCC 23857; Bacillus subtilis, ATCC23857; read-out: Minimal Inhibitory Concentration B. subtilis ATCC 23857): 0.1 µM (≈ 0.0882 µg/mL); MIC (S. pneumoniae R6): 0.024 µM (≈ 0.0212 µg/mL); MIC (S. pyogenes ATCC 700294; Streptococcus pyogenes, ATCC700294; read-out: Minimal Inhibitory Concentration S. pyogenes ATCC 700294): 0.2 µM (≈ 0.176 µg/mL); Minimal Inhibitory Concentration S. aureus USA 300 ΔClpP (S. aureus USA 300 ΔClpP): 50 µM
NC[C@H]1O[C@H](O[C@H]2[C@H](O)[C@@H](O[C@H]3O[C@H](CO)[C@@H](O)[C@H](N)[C@H]3O)[C@H](N)C[C@@H]2N)[C@H](O)[C@@H](O)[C@@H]1O [Kanamycin, kanamycin, reference compound]	0.4	–	–	–	–	–	MIC (S. pneumoniae DAW27; [9]): 25 µM (≈ 12.1 µg/mL)
CN(C)[C@@H]1C(O)=C(C(N)=O)C(=O)[C@@]2(O)C(O)=C3C(=O)c4c(O)cccc4[C@@](C)(O)[C@H]3C[C@@H]12 [Tetracycline, tetracycline, reference compound]	12.5	–	–	–	–	–	MIC (S. pneumoniae DAW27; [9]): 0.1 µM (≈ 0.0444 µg/mL)
